# Like-named read-outs stand apart in the source and are kept apart here.
# System: H. pylori
# Assay: Checkerboard method, adjuvant effect of probiotic supernatant on antibiotic MIC/MBC
# Assay type: cell-based, Helicobacter pylori
# Conditions: for MBC / MIC: Helicobacter pylori; for MBC: read-out: MBC towards the H. pylori strain; for MIC: read-out: MIC towards the H. pylori strain
# [1] = probiotic supernatant (L. acidophilus La-14) added to antibiotic
MIC (antibiotic alone) [µg/mL],MIC [1] [µg/mL],MIC with probiotic supernatant as fraction of the original MIC [1],SMILES,MBC (antibiotic alone) [µg/mL],MBC [1] [µg/mL],increase of antibiotic activity against H. pylori [1] [folds]
0.25,0.00025,1/1000,"CC1(C)S[C@@H]2[C@H](NC(=O)[C@H](N)c3ccc(O)cc3)C(=O)N2[C@H]1C(=O)O [Amoxicillin, amoxicillin]",0.5,0.0005,1000
12,0.125,1/100,"CC[C@H]1OC(=O)[C@H](C)[C@@H](O[C@H]2C[C@@](C)(OC)[C@@H](O)[C@H](C)O2)[C@H](C)[C@@H](O[C@@H]2O[C@H](C)C[C@H](N(C)C)[C@H]2O)[C@](C)(OC)C[C@@H](C)C(=O)[C@H](C)[C@@H](O)[C@]1(C)O [Clarithromycin, clarithromycin]",24,0.25,100

# — US12029768B2, “Probiotics useful for eradicating helicobacter pylori infection” (DACF S.r.l., priority 2018, dated 2024)
